Kd data for nine compounds are collected here from EP4667483A1, “HUMAN TRANSFERRIN RECEPTOR-BINDING PEPTIDE” (JCR Pharmaceuticals Co., Ltd., priority 2023, dated 2024).

For orientation: Kd means the equilibrium constant for the complex coming apart.

The target of assay [1] is T1, human transferrin receptor (hTfR) (Homo sapiens, UniProt P02786). Put plainly: SPR measurement under pH 7.4 conditions (Biacore T200, CM3 chip, hTfR captured by His Tag antibody). The following applies: read-out: hTfR SPR pH7.4 KD. It counts as binding.
T1 sequence (P02786 whole entry): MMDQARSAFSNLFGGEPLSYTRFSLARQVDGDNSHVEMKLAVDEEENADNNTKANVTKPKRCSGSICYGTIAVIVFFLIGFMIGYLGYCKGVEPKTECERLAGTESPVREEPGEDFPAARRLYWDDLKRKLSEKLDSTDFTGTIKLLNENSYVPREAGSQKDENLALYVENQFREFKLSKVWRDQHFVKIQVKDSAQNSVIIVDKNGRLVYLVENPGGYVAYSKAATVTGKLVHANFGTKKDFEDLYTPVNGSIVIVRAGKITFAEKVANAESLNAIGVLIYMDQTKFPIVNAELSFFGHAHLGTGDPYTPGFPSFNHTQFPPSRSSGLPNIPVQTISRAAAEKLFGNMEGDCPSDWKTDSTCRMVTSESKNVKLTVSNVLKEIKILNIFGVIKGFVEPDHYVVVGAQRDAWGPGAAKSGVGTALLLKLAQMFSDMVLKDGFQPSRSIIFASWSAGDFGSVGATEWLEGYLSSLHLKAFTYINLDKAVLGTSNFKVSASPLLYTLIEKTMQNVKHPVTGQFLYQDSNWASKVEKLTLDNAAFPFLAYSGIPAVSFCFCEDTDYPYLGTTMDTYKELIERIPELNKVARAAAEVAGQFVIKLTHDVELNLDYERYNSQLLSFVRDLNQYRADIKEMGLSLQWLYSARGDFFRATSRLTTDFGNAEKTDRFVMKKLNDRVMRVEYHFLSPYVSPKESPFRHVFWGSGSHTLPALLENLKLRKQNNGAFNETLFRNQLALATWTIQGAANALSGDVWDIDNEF
Assay [2] addresses T1, human transferrin receptor (hTfR). Put plainly: SPR measurement under pH 6.0 conditions (Biacore T200, NTA chip, immobilized hTfR). The following applies: read-out: hTfR SPR pH6.0 KD. The assay is classed as binding. On the technique in general: SPR reads the build-up and loss of mass on a sensor chip optically.
The mark [3] stands for this setting: SPR, pH 7.4, peptide with the linker named in the table.
The mark [4] stands for this setting: SPR, pH 6.0, peptide with the linker named in the table.

Numbered stars: 1 amine (or outer) side, 2 acyl side, 3 side chain; on linkers, the order of the positions; unused ones are H or OH. Bridge positions count the residues as written; N and C are the ends. Square brackets hold non-standard residues; d marks the D form. Peptide text beside a SMILES is read from it. * marks the point of attachment. Ala(imidazo(1,2-a)pyr3yl) = N[C@@H](Cc1cnc2ccccn12)C(=O)O; Trp(1-CH2COOH) = N[C@@H](Cc1cn(CC(=O)O)c2ccccc12)C(=O)O; NMePhe(4-COOH) = CN[C@@H](Cc1ccc(C(=O)O)cc1)C(=O)O; X1 = O=C([C@H](Cc1cccc(C(=O)[*:3])c1)N[*:1])[*:2]; Phe(3-COOH) = N[C@@H](Cc1cccc(C(=O)O)c1)C(=O)O; Trp(7-aza) = N[C@@H](Cc1c[nH]c2ncccc12)C(=O)O; NMePhe(3-Cl) = CN[C@@H](Cc1cccc(Cl)c1)C(=O)O; X5 = COc1cc(C[C@H](N[*:1])C(=O)[*:2])ccn1; 3Pal(6-NH2) = Nc1ccc(C[C@H](N)C(=O)O)cn1; NMeW = CN[C@@H](Cc1c[nH]c2ccccc12)C(=O)O; Lys(N3) = [N-]=[N+]=NCCCC[C@H](N)C(=O)O; NMeY = CN[C@@H](Cc1ccc(O)cc1)C(=O)O; Nva(3-Et) = CCC(CC)[C@H](N)C(=O)O; NMeF = CN[C@@H](Cc1ccccc1)C(=O)O; PEG4 = NCCOCCOCCOCCOCCC(=O)O; Carboxymethyl = O=C(O)C*

Take `CCC(CC)[C@@H]1NC(=O)[C@H](Cc2ccc(O)cc2)NC(=O)[C@H](Cc2ccc(N)nc2)NC(=O)[C@H](CC(N)=O)NC(=O)[C@H](Cc2c[nH]c3ccccc23)N(C)C(=O)[C@H](C(C)C)NC(=O)[C@H](Cc2ccccc2)N(C)C(=O)[C@H](C(C)C)NC(=O)[C@H](C)NC(=O)CSC[C@@H](C(=O)NCC(=O)N[C@@H](CCCCN=[N+]=[N-])C(N)=O)NC(=O)[C@H](Cc2ccc(C(=O)O)cc2)N(C)C(=O)[C@H](Cc2ccc(O)cc2)NC(=O)[C@H](CCCNC(=N)N)NC(=O)[C@H](CCCCN)NC(=O)[C@H]([C@@H](C)CC)NC1=O` [compound 187] ({CH2CO}-AV[NMeF]V[NMeW]N[3Pal(6-NH2)]Y[Nva(3-Et)]IKRY[NMePhe(4-COOH)]CG[Lys(N3)]-NH2; thioether N-15): the Kd was 9.9 nM in assay [1] (SPR, pH 7.4, Table 1-3-2-2) and 30.7 nM in assay [2] (SPR, pH 6.0, Table 1-3-2-2).

Turning to `CCC(CC)[C@@H]1NC(=O)[C@H](Cc2ccc(OCC(=O)O)cc2)NC(=O)[C@H](Cc2ccc(O)cc2)NC(=O)[C@H](CC(N)=O)NC(=O)[C@H](Cc2c[nH]c3ncccc23)NC(=O)[C@H](C(C)C)NC(=O)[C@H](Cc2cccc(Cl)c2)N(C)C(=O)[C@H](C(C)C)NC(=O)[C@H](C)NC(=O)CSC[C@@H](C(=O)NCCOCCOCCOCCOCCC(N)=O)NC(=O)[C@H](Cc2ccc(C(=O)O)cc2)N(C)C(=O)[C@H](Cc2cccc(C(=O)O)c2)NC(=O)[C@H](CCCNC(=N)N)NC(=O)[C@H](CCC(N)=O)NC(=O)[C@H]([C@@H](C)CC)NC1=O` [compound 108] ({CH2CO}-AV[NMePhe(3-Cl)]V[Trp(7-aza)]NYY(Carboxymethyl)[Nva(3-Et)]IQR[Phe(3-COOH)][NMePhe(4-COOH)]C[PEG4]-NH2; thioether N-15), the values for the Kd in assay [1] (setting [3]) and in assay [2] (setting [4]) were 13.9 nM and 36.1 nM, respectively.

For `CC[C@H](C)[C@@H]1NC(=O)[C@H](Cc2ccc(O)cc2)NC(=O)[C@H](Cc2ccc(N)nc2)NC(=O)[C@H](CC(N)=O)NC(=O)[C@H](Cc2c[nH]c3ccccc23)N(C)C(=O)[C@H](C(C)C)NC(=O)[C@H](Cc2ccccc2)N(C)C(=O)[C@H](C(C)C)NC(=O)[C@H](C)NC(=O)CSC[C@@H](C(=O)NCC(=O)N[C@@H](CCCCN=[N+]=[N-])C(N)=O)NC(=O)[C@H](Cc2ccc(C(=O)O)cc2)N(C)C(=O)[C@H](Cc2ccc(O)cc2)NC(=O)[C@H](CCCNC(=N)N)NC(=O)[C@H](CCCCN)NC(=O)[C@H]([C@@H](C)CC)NC1=O` [compound 196] ({CH2CO}-AV[NMeF]V[NMeW]N[3Pal(6-NH2)]YIIKRY[NMePhe(4-COOH)]CG[Lys(N3)]-NH2; thioether N-15), the Kd is 2.94 nM in assay [1] (SPR, pH 7.4, Table 1-3-2-2) and 13.9 nM in assay [2] (SPR, pH 6.0, Table 1-3-2-2).

On to `CCC(CC)[C@@H]1NC(=O)[C@H](Cc2ccc(OCC(=O)O)cc2)NC(=O)[C@H](Cc2ccc(O)cc2)NC(=O)[C@H](CC(N)=O)NC(=O)[C@H](Cc2cn(CC(=O)O)c3ccccc23)NC(=O)[C@H](C(C)C)NC(=O)[C@H](Cc2cccc(Cl)c2)N(C)C(=O)[C@H](C(C)C)NC(=O)[C@H](C)NC(=O)CSC[C@@H](C(=O)NCCOCCOCCOCCOCCC(N)=O)NC(=O)[C@H](Cc2ccc(O)cc2)N(C)C(=O)[C@H](Cc2ccnc(OC)c2)NC(=O)[C@H](CCCNC(=N)N)NC(=O)[C@H](CCC(N)=O)NC(=O)[C@H]([C@@H](C)CC)NC1=O` [compound 103] ({CH2CO}-AV[NMePhe(3-Cl)]V[Trp(1-CH2COOH)]NYY(Carboxymethyl)[Nva(3-Et)]IQR[X5][NMeY]C[PEG4]-NH2; thioether N-15), for which the values for the Kd in assay [1] (setting [3]) and in assay [2] (setting [4]) were 11.5 nM and 95 nM, respectively.

For `CCC(CC)[C@@H]1NC(=O)[C@H](Cc2ccc(OCC(=O)O)cc2)NC(=O)[C@H](Cc2ccc(O)cc2)NC(=O)[C@H](CC(N)=O)NC(=O)[C@H](Cc2c[nH]c3ccccc23)NC(=O)[C@H](C(C)C)NC(=O)[C@H](Cc2cccc(Cl)c2)N(C)C(=O)[C@H](C(C)C)NC(=O)[C@H](C)NC(=O)CSC[C@@H](C(=O)NCCOCCOCCOCCOCCC(N)=O)NC(=O)[C@H](Cc2ccc(O)cc2)N(C)C(=O)[C@H](Cc2cccc(C(=O)NCCOCCOCCOCCOCCC(=O)O)c2)NC(=O)[C@H](CCCNC(=N)N)NC(=O)[C@H](CCC(N)=O)NC(=O)[C@H]([C@@H](C)CC)NC1=O` [compound 112] ({CH2CO}-AV[NMePhe(3-Cl)]VWNYY(Carboxymethyl)[Nva(3-Et)]IQR[X1](PEG4)[NMeY]C[PEG4]-NH2; thioether N-15), the Kd in assay [1] (setting [3]) was found to be 3.53 nM; in assay [2] (setting [4]), 11.5 nM.

Take `CC[C@H](C)[C@@H]1NC(=O)[C@H](Cc2ccc(OC)cc2)NC(=O)[C@H](Cc2ccc(N)nc2)NC(=O)[C@H](CC(N)=O)NC(=O)[C@H](Cc2c[nH]c3ncccc23)NC(=O)[C@H](C(C)C)NC(=O)[C@H](Cc2cccc(Cl)c2)N(C)C(=O)[C@H](C(C)C)NC(=O)[C@H](C)NC(=O)CSC[C@@H](C(=O)NCCOCCOCCOCCOCCC(N)=O)NC(=O)[C@H](Cc2ccc(O)cc2)N(C)C(=O)[C@H](Cc2ccncc2)NC(=O)[C@H](CCCNC(=N)N)NC(=O)[C@H](CCC(=O)NCCOCCOCCOCCOCCOCCOCCOCCOC)NC(=O)[C@H]([C@@H](C)CC)NC1=O` [compound 11]: the Kd stood at 7.1 nM in assay [1] (pH 7.4, single-cycle kinetics) and 110 nM in assay [2] (pH 6.0, single-cycle kinetics).

With `CCC(CC)[C@@H]1NC(=O)[C@H](Cc2ccc(OCC(=O)O)cc2)NC(=O)[C@H](Cc2ccc(O)cc2)NC(=O)[C@H](CC(N)=O)NC(=O)[C@H](Cc2cnc3ccccn23)NC(=O)[C@H](C(C)C)NC(=O)[C@H](Cc2cccc(Cl)c2)N(C)C(=O)[C@H](C(C)C)NC(=O)[C@H](C)NC(=O)CSC[C@@H](C(=O)NCC(=O)N[C@@H](CCCCN=[N+]=[N-])C(N)=O)NC(=O)[C@H](Cc2ccc(O)cc2)N(C)C(=O)[C@H](Cc2cccc(C(=O)O)c2)NC(=O)[C@H](CCCNC(=N)N)NC(=O)[C@H](CCC(N)=O)NC(=O)[C@H]([C@@H](C)CC)NC1=O` [compound 67] ({CH2CO}-AV[NMePhe(3-Cl)]V[Ala(imidazo(1,2-a)pyr3yl)]NYY(Carboxymethyl)[Nva(3-Et)]IQR[Phe(3-COOH)][NMeY]CG[Lys(N3)]-NH2; thioether N-15), the Kd amounted to 21.6 nM in assay [1] (pH 7.4, single-cycle kinetics) and 444 nM in assay [2] (pH 6.0, single-cycle kinetics).

In the case of `CC[C@H](C)[C@@H]1NC(=O)[C@H](Cc2ccc(OC)cc2)NC(=O)[C@H](Cc2ccc(O)cc2)NC(=O)[C@H](CC(N)=O)NC(=O)[C@H](Cc2c[nH]c3ncccc23)NC(=O)[C@H](C(C)C)NC(=O)[C@H](Cc2cccc(Cl)c2)N(C)C(=O)[C@H](C(C)C)NC(=O)[C@H](C)NC(=O)CSC[C@@H](C(=O)NCCOCCOCCOCCOCCC(N)=O)NC(=O)[C@H](Cc2ccc(O)cc2)N(C)C(=O)[C@H](Cc2cccc(C(=O)NCCOCCOCCOCCOCCC(=O)O)c2)NC(=O)[C@H](CCCNC(=N)N)NC(=O)[C@H](CCC(=O)NCCOCCOCCOCCOCCC(=O)O)NC(=O)[C@H]([C@@H](C)CC)NC1=O` [compound 146], the Kd stood at 2.75 nM in assay [1] (setting [3]) and 11.4 nM in assay [2] (setting [4]).

In the case of `CC[C@H](C)[C@@H]1NC(=O)[C@H](Cc2ccc(OCC(=O)NC[C@H](O)[C@@H](O)[C@H](O)[C@H](O)CO)cc2)NC(=O)[C@H](Cc2ccc(O)cc2)NC(=O)[C@H](CC(N)=O)NC(=O)[C@H](Cc2c[nH]c3ncccc23)NC(=O)[C@H](C(C)C)NC(=O)[C@H](Cc2cccc(Cl)c2)N(C)C(=O)[C@H](C(C)C)NC(=O)[C@H](C)NC(=O)CSC[C@@H](C(=O)NCCOCCOCCOCCOCCC(N)=O)NC(=O)[C@H](Cc2ccc(O)cc2)N(C)C(=O)[C@H](Cc2ccncc2)NC(=O)[C@H](CCCCN2CCOCC2)NC(=O)[C@H](CCC(N)=O)NC(=O)[C@H]([C@@H](C)CC)NC1=O` [compound 29], the Kd in assay [1] (pH 7.4, single-cycle kinetics) was 2.17 nM; in assay [2] (pH 6.0, single-cycle kinetics), 11.1 nM.
